Assay: Human HepG2 cell viability assay in 384 well format
Type: toxicity, cell-based
Parameters: dose 125 nL, time 70.5 hour; cytotoxicity at 70.5 h: concentration not given beside the values
Conditions: HepG2 cells, read-out: Inhibition

| SMILES | cytotoxicity at 70.5 h |
| --- | --- |
| CN(C)C[C@@H]1CCC[C@@H]2CN(c3cccnc3)C[C@@H]21 | -1.5% |
| CCC(C(=O)NCc1ccncc1)N(c1ccc(OC)cc1)S(C)(=O)=O (stereo not drawn) | -4.69% |
| Cn1ccnc1CN1CCC2(CC1)CC(Oc1cccnc1)C2 | 1.72% |
| Cc1cccc(N2CC[C@H]3[C@H]2CCN3C(=O)c2cnn(C)c2)n1 | -8.26% |
| Cc1noc([C@H]2C[C@H]3OCC[C@H]3N(S(C)(=O)=O)C2)n1 | 3.17% |
| Cc1ncsc1CCN(C)Cc1cc2n(n1)CCN(S(C)(=O)=O)C2 | -6.95% |
| Cc1cnc(N2CCC3(C2)C(=O)N(C)CCN3Cc2cccnc2)nc1 (stereo not drawn) | -5.14% |
| COC(=O)CCC(=O)N1CCc2[nH]nc(-c3ccc4c(c3)OCO4)c2C1 | -3.99% |
| COc1ccc(S(=O)(=O)NCC(O)c2sccc2C)cc1Cl (stereo not drawn) | 0.182% |
| CC1(C(=O)N2CCOCC2)CNCCO1 (stereo not drawn) | -7.18% |
| O=C1CC2(CCCCC2)CC(=O)N1CC(O)COCc1ccc(Cl)cc1 (stereo not drawn) | -6.34% |
| NC(=O)CCC1CCCN(c2ccc3ccc(F)cc3n2)C1 (stereo not drawn) | -3.15% |
| Cc1c(C(=O)NC2CCCOC2)nnn1-c1ccccc1 (stereo not drawn) | 17.4% |
| COc1cc(N2CCC3(CC2)CC(N2CCOCC2)C3)ncn1 | -16% |
| O=C(NCc1cccc(F)c1)NCC(O)c1cccc(F)c1 (stereo not drawn) | 20.3% |
| Cc1nnc(NCCc2coc(-c3ccccc3)n2)c(C#N)c1C | -2.75% |
| CC(C)CN1CC(c2nc(C3CC3)n[nH]2)CC1=O (stereo not drawn) | -9.82% |
| CCOC(=O)C1CSCCN1C(=O)c1ccc(-n2nc(C)cc2C)cc1 (stereo not drawn) | 3.47% |
| Cc1cc(N2CCC(N(C)Cc3cc(=O)c(O)co3)CC2)nc(C)n1 | -7% |
| Cc1nc(-c2ccncc2)ncc1C(C)NC(=O)CN1CCCCC1 (stereo not drawn) | -7.41% |
| Cc1nc(-c2cccc(C(=O)O)c2)cc(C2CCCN(C(C)C)C2)n1 (stereo not drawn) | 13.2% |
| CCc1nc(CN2CCOC(CN(C)c3cccnn3)C2)cs1 (stereo not drawn) | -7.04% |
| O=C(c1ncc[nH]1)N1CCC(n2cc(-c3ccccn3)nn2)CC1 | 0.522% |

| SMILES | cytotoxicity at 70.5 h |
| --- | --- |
| Cn1cccc1C(=O)N1C[C@H]2CN(CC3CC3)C(=O)[C@H]2C1 | 6.81% |
| CC(=O)c1cnc(N(C)Cc2cc(C)cc(C)n2)nc1C | -8.24% |
| CN(CC(=O)N1CCC(Oc2ccc(C(F)(F)F)cn2)CC1)S(C)(=O)=O | 0.51% |
| Cc1ncccc1CNC(CCO)C1CCCCC1 (stereo not drawn) | 1.16% |
| Cc1csc(C(Cc2ccsc2)NC(=O)CN(C)Cc2cccnc2)n1 (stereo not drawn) | -0.677% |
| Cc1nn(C)c(N2CCOCC2)c1CNC1CCCCNC1=O (stereo not drawn) | -5.43% |
| COCCC(=O)N[C@H]1CN(c2nc(C)c3c(n2)CCCC3)C[C@@H]1C1CC1 | -9.64% |
| CN(C)C(=O)[C@H]1CCS(=O)(=O)[C@@H]2CN(c3ncc(F)cn3)C[C@H]12 | 23.5% |
| CC(SCCC(=O)NC(N)=O)c1ccc(F)cc1F (stereo not drawn) | -14.8% |
| CSCc1nc(CCNC(=O)C2CCCN(C(C)=O)C2)cs1 (stereo not drawn) | -2.37% |
| CC(NC(N)=O)C(=O)Nc1ccc(OCc2cccc(F)c2)c(F)c1 (stereo not drawn) | -10.3% |
| CC(C)C[C@@H](CO)n1cc(-c2cnc(-c3ccco3)nc2)nn1 | -6.45% |
| O=C(O)c1ccccc1-c1ccc(CN2CC(O)C2)cc1 | -11.6% |
| CSCC[C@H](NC(=O)CCn1ccc2c(Br)cccc21)C(=O)O | -16.3% |
| CNC(=O)C1Cn2ccnc2C2(CCN(c3ccc(C)nn3)CC2)O1 (stereo not drawn) | -0.593% |
| O=C(c1cccnc1O)N1CCCN(c2cccnn2)CC1 | -9.98% |
| CCC(Nc1nc(CCN)nc2ccccc12)c1cc(C)ccn1 (stereo not drawn) | -5.71% |
| CC(Cn1cccn1)NC(=O)NCc1ccccn1 (stereo not drawn) | -3.27% |
| O=C(c1ccccn1)N1CCC(S(=O)(=O)c2ccccc2)C1 (stereo not drawn) | -9.33% |
| O=C(NCC(O)c1cccc(F)c1)C1CCN(C2CCCCC2)CC1 (stereo not drawn) | -16.4% |
| O=C1N(Cc2ccc(F)c(F)c2)CCCC1(O)CNCc1ccccn1 (stereo not drawn) | -4.31% |
| CCc1ccsc1C(=O)NC(C#N)CC (stereo not drawn) | -5.37% |
| COC(=O)c1cnn(-c2cc(Oc3cccc(C)c3)ncn2)c1N | 4% |

| SMILES | cytotoxicity at 70.5 h |
| --- | --- |
| O=C(C1CCOC1)N1CCC2(CCCNC2)CC1 (stereo not drawn) | -8.86% |
| CCN1CCN(C2CCN(C(C(N)=O)c3ccccc3)CC2)C1=O (stereo not drawn) | 1.23% |
| CCN(CCO)C[C@@H]1CN(C(=O)c2ccc(C)s2)C[C@@H]1CO | 34.8% |
| Cc1nn(C)c(Cl)c1C1CCCN1C(=O)c1ccc2nncn2c1 (stereo not drawn) | 5.97% |
| O=C(CCc1cncc(F)c1)NS(=O)(=O)c1ccc(F)cc1F | 8.87% |
| Clc1ccc(-c2ccc(C3CNCCO3)nc2)cc1 (stereo not drawn) | -0.52% |
| O=C(NCC1CCN(C(=O)c2ccoc2)CC1)c1ccccc1Br | -0.695% |
| Cc1cc(CNC(=O)C2CCN(CC(N)=O)CC2)cc(C)n1 | -6.5% |
| Cn1ccc(NCc2cc3cc(F)ccc3o2)n1 | -4.66% |
| O=C1C[C@H]2CC[C@@H](CN1)N2C(=O)CCc1ccsc1 | -9.38% |
| CCCN(C(=O)c1ccncc1)c1nc2c(s1)CCc1c-2cnn1C | 18.2% |
| COCC1CCCN(C(=O)c2ccc(N(C)Cc3cnn(C)c3)nc2)C1 (stereo not drawn) | 26% |
| COc1ccc(C(C)NCc2ccc(OC)c(OC)c2OC)cc1F (stereo not drawn) | 31.6% |
| CCc1oc(C(=O)N2CCC(N(CC)C(C)=O)C2)cc1CN(CC)CC (stereo not drawn) | -12.3% |
| Cn1c(C(=O)NCC2(N)CCCC2)cc2ccccc21 | 3.39% |
| Cn1cnc(-c2ccc(F)cc2)c1NC(=O)CCNC(=O)C(C)(C)C | -7.61% |
| O=C(Nc1nccs1)NC1CCOc2ccccc21 (stereo not drawn) | -1.72% |
| Cn1cccc1C(=O)N1C[C@H]2CN(Cc3cccs3)C[C@H]2C1 | -4.47% |
| COc1ccc(OCCCNCCn2cccn2)cc1 | 22.8% |
| O=C(c1ccncc1F)N1C[C@H]2CC[C@@H]1CN(Cc1cccnc1)C2 | -4.95% |
| CC(C)c1nnc2n1CCN(C(=O)c1ccccc1OCC1CC1)C2 | -4.61% |
| COc1ccc(C2(NCc3noc(C4CC4)n3)CCOCC2)cc1 | -12.1% |
| CC(=O)Nc1nc(C(=O)N2CCCC(n3ccnc3)C2)cs1 (stereo not drawn) | -0.488% |

| SMILES | cytotoxicity at 70.5 h |
| --- | --- |
| NC(=O)c1c(SCCN2CCOCC2)sc2c(O)cc(=O)[nH]c12 | 10.5% |
| c1cncc(N2CCCn3nnc(CN4CCCCC4)c3C2)c1 | -0.156% |
| CN(C)S(=O)(=O)N1CC[C@]2(O)CCN(CCCc3cccnc3)C[C@@H]2C1 | 1.31% |
| CN(C)C1Cc2ccccc2N(S(=O)(=O)c2ccccc2C#N)C1 (stereo not drawn) | 34.1% |
| CC(C)(CO)CCCNC(=O)N1CCc2c(F)ccc(F)c2C1 | -2.98% |
| O=C(c1cccs1)N1CC[C@H]2C[C@@H](c3nnc(C4CC4)o3)O[C@@H]2C1 | -7% |
| COc1ccc(-c2nnc(C(C)N3CCC4(CC3)OCCO4)o2)cc1 (stereo not drawn) | -10.3% |
| COc1ccc(-n2nnc(C(=O)O)c2-c2ccccn2)cc1 | -14.5% |
| CCOc1ccc(NC(C)C(=O)Nc2cc(C)no2)cc1 (stereo not drawn) | -5.28% |
| CCCN1CCCn2nc(CNC(=O)CC(C)n3ccnc3C)cc2C1 (stereo not drawn) | 9.04% |
| CCc1ccc(OCCN(C)C(=O)c2ccncc2Cl)cc1 | -5.33% |
| O=C(c1cscn1)N1CCC2(CCN(Cc3cccs3)CC2)C1 | -6.38% |
| O=C(CN1CCCC1Cn1cncn1)Nc1nccs1 (stereo not drawn) | -7% |
| Cc1nc(Oc2ccccc2Cl)sc1C(=O)O | -15.5% |
| CSc1cc2c(cc1NC(=O)NCC1CCOC1)OCCO2 (stereo not drawn) | -1.8% |
| COc1ccc(Br)cc1CN(C)C(C)c1nc(C)no1 (stereo not drawn) | -20.1% |
| COCCn1c2c(ccc1=O)CC(NCc1cccnc1OC)CC2 (stereo not drawn) | -13.6% |
| CC(=O)Nc1ncc(S(=O)(=O)N2CCCC(C)C2)s1 (stereo not drawn) | -3.6% |
| COc1ccc(C(=O)N2CCC(Oc3ccc(C)cc3)(C(=O)O)CC2)o1 | 0.709% |
| Cc1nnc2n1CC(CNCc1nc(-c3ccsc3)no1)CC2 (stereo not drawn) | -14.6% |
| CC(O)CN1CCC(CNCc2cccc(C(N)=O)c2)CC1 (stereo not drawn) | -4% |
| O=C(C1CCN(c2ccnc3ccc(Br)cc23)CC1)N1CCOCC1 | 8.35% |
| CCn1ccnc1CN1CCCN(C(=O)COC2CCCC2)CC1 | 22.5% |

| SMILES | cytotoxicity at 70.5 h |
| --- | --- |
| CC(C)Cc1ncc(CNc2cnccc2CO)s1 | -1.94% |
| CCOc1ccccc1C(=O)NCCc1ccoc1 | -13.5% |
| NC(=O)c1cnc(NCC(=O)NCc2ccccc2)c(Cl)c1 | -4.1% |
| CN(C)C(=O)C1(C)CN(Cc2cn(C)c3ccccc23)CCO1 (stereo not drawn) | -4.04% |
| Cc1cc(N2CCC(N(C)C(=O)Nc3ccccc3)CC2)nc(C)n1 | 2.35% |
| Cc1cc(N[C@H](CO)COCc2ccccc2)n2nc(C)cc2n1 | -0.86% |
| CCC[C@@H]1CN(Cc2ccc(N(C)C)nc2)C[C@H]1N(C)C | -9.01% |
| CCc1csc(NC(=O)NCc2ccccn2)n1 | -2.4% |
| COc1ccccc1CCN1CCCC(CN(C)Cc2cc(C)n[nH]2)C1 (stereo not drawn) | -8.68% |
| Cc1noc(C)c1CN(C)C(=O)c1ccc(C(N)=O)nc1 | -5.9% |
| Cc1ccc(OCCCSC2=NCCN2)cc1 | -3.22% |
| Cc1ocnc1C(=O)N(C)[C@@H]1CCC[C@@H](N2CCCC2)[C@@H]1O | 25.2% |
| O=C(NCc1ccc(-n2cncn2)nc1)c1cc(Cl)c2c(c1)OCCO2 | -3.48% |
| Cc1cccc(OC2CCN(c3nccnc3C#N)CC2)n1 | 4.46% |
| CN(CC(=O)NC(C)(C)C)Cc1cccc2c1OCCO2 | 33.4% |
| COc1ccc(C)cc1NC(=O)c1c(C)cn(C)c1CC(=O)O | -11% |
| CN(C)CCOCc1cncc2c1CCN(C1CCOC1)C2 (stereo not drawn) | -4.13% |
| Cc1ccc(N2CCCC3(COCCN(c4nccs4)C3)C2)nn1 (stereo not drawn) | -9.95% |
| Cc1ccc(N2N=C(C(=O)N(C)Cc3ccco3)NCC2=O)cc1 | 4.87% |
| CCN(CC)[C@@H]1CN(Cc2ccc(C)o2)[C@@H]2CCCO[C@H]12 | -14.1% |
| Cc1ccc(CCCC(=O)N2CCN(C3CCCN(C)C3)CC2)s1 (stereo not drawn) | -2.97% |

— ChEMBL document CHEMBL3507680, “University of Dundee, Gates Library screen for HepG2 cell viability”
